Laboratory results from patent US9486464B2, “Composition and method of manufacture” (Persavita Ltd, priority 2010, dated 2016).

Tests used:
primary RPE cells = assay: Toxicity testing on RPE cell cultures (MTT assay); details: 24 hours of exposure; crocin 10 μM to 500 μM, resveratrol 0.1 μM to 25 μM
Procedure: (§1) When implementing the method, concentrations of 10 μM to 500 μM crocin and 0.1 μM to 25 μM resveratrol are beneficially employed for toxicity characterization. Moreover, concentrations of 100 μM crocin and 1 μM resveratrol are beneficially employed to investigate synergistic effects against light-induced phototoxicity with a final DMSO concentration of 0.1%. Beneficially, DMSO is added to cultures at 0.1% (v/v) as a solvent control.
Dulbecco-modified Eagle medium (DMEM, obtainable from Biochrom, Berlin, Germany) supplemented with 10% fetal calf serum (FCS, obtainable from Biochrom, Berlin, Germany) was used as the cell culture medium when undertaking the experimental tests.
For determining cell survival rate after the aforesaid illumination, the tetrazolium dye-reduction assay (MTT); 3-[4,5-methylthiazol-2-yl]-2,2-diphenyl tetrazolium bromide) is beneficially used for determining the cell survival rate after aforesaid illumination has been applied. […] The serum-free cell culture medium is beneficially removed, the cells then washed with PBS, and thereafter 1000 μL of MTT solution (1.5 mL MTT stock, 2 mg/mL in PBS, together with 28.5 mL MEM) added to each well in the cell culture. […] Thereafter, absorption is beneficially measured by employing a scanning multiwell spectrophotometer operating at an interrogating radiation wavelength of 550 nm (apparatus obtainable from Molecular Probes). […]

[1] = system: bovine and primate retinal cell cultures; details: 160 μM crocin; cited from earlier work
primary human RPE cells = assay: Light-induced phototoxicity in primary human RPE cells, viability by MTT assay; type: cell-based; details: pre-treatment 100 μM crocin, 1 μM resveratrol or both; 300 mW/cm^2 for 60 min; FIG. 3
Procedure: as §1
For preparing the cell culture medium, primary RPE cells from three human donors (obtained 3 to 10 hours postmortem) without any history of eye disease were obtained from the Eye Bank of Ludwig Maximilian University. Dulbecco-modified Eagle medium (DMEM, obtainable from Biochrom, Berlin, Germany) supplemented with 10% fetal calf serum (FCS, obtainable from Biochrom, Berlin, Germany) was used as the cell culture medium when undertaking the experimental tests. […]
The aforesaid illumination is beneficially obtained from a spot-light source (LC-8, obtainable from Hamamatsu Photonics, Japan), although other illumination sources are optionally employed. […] For obtaining accurate experimental measurements, the illumination power and spectral range of illumination employed for the tests are beneficially measured using a spectrometer (C10083MD, obtainable from Hamamatsu Photonics), although other measuring instruments may be optionally employed. […]

mouse retina = details: in vitro and in vivo, sirtuin-independent pathway; cited from earlier work
retina = details: oral consumption in mice; cited from earlier work
human RPE cells = details: cited from earlier work
[2] = system: vascular endothelial cells; details: cited from earlier work
mammalian retina = details: after exposure to damaging light; cited from earlier work

| SMILES | toxic effects in respect of RPE cell cultures (primary RPE cells) | photoreceptors surviving light exposure [1] | decrease in viability of RPE cells after light exposure compared with cells not treated (primary human RPE cells) | pathological angiogenesis (mouse retina) | retinal degradation related to light damage (retina) | effect on acrolein-induced oxidative stress (human RPE cells) | proliferation and migration of vascular endothelial cells [2] | retinal morphology and function (mammalian retina) |
| --- | --- | --- | --- | --- | --- | --- | --- | --- |
| CC(/C=C/C=C(\C)C(=O)O[C@@H]1O[C@H](CO[C@@H]2O[C@H](CO)[C@@H](O)[C@H](O)[C@H]2O)[C@@H](O)[C@H](O)[C@H]1O)=C\C=C\C=C(C)\C=C\C=C(/C)C(=O)O[C@@H]1O[C@H](CO[C@@H]2O[C@H](CO)[C@@H](O)[C@H](O)[C@H]2O)[C@@H](O)[C@H](O)[C@H]1O [crocin] | no significant toxic effects | more than 90% | significantly smaller decrease in viability | – | – | – | – | – |
| Oc1ccc(/C=C/c2cc(O)cc(O)c2)cc1 [resveratrol, 3,5,4″-trihydroxystilbene] | – | – | significantly smaller decrease in viability | inhibit pathological angiogenesis | capable of preventing retinal degradation | protective effects | inhibiting proliferation and migration | – |
| CC1=C(/C=C/C(C)=C/C=C/C(C)=C/C=C/C=C(C)/C=C/C=C(C)/C=C/C2=C(C)CCCC2(C)C)C(C)(C)CCC1 [beta-carotene] | – | – | – | – | – | – | – | ineffective for maintaining retinal function, and only improved morphology |
